Columns and labels:
PTK2 enzyme = target: T1, PTK2 enzyme (Homo sapiens, UniProt Q05397); test: PTK2 enzyme test, Assay 2 (DELFIA, poly-Glu-Tyr substrate, antibody PT66); assay type: biochemical; conditions: Assay 2 (values marked *); 1 h pre-incubation, 0.5% DMSO
T1 construct: purchased Invitrogen PV3832
From the text: This test uses active PTK2 enzyme (Invitrogen Code PV3832) and poly-Glu-Tyr (4:1, Sigma P-0275) as the kinase substrate. The kinase activity is detected by means of the phosphorylation of the substrate in a DELFIA™ assay. The phosphorylated substrate is detected with the europium-labelled phosphotyrosine antibody PT66 (Perkin Elmer, No.: AD0040).
In order to determine concentration-activity curves with PTK2-inhibitors the compounds are serially diluted first of all in 10% DMSO/H2O and then in kinase dilution buffer (20 mM TRIS/HCl pH 7.5, 0.1 mM EDTA, 0.1 mM EGTA, 0.286 mM sodium orthovanadate, 10% glycerol with the addition of freshly prepared BSA (fraction V, 1 mg/mL) and DTT (1 mM)) and 10 μL of each dilution are dispensed per well in a 96-well microtitre plate (clear U-shaped base plate, Greiner No. 650101) (the inhibitors are tested in duplicates) and mixed with 10 μL/well of PTK2 kinase (0.01 μg/well). PTK2 kinase is diluted accordingly beforehand with kinase dilution buffer. The diluted PTK2 inhibitor and the PTK2 kinase are pre-incubated for 1 h at RT and shaken at 500 revolutions per min. Then 10 μL/well poly-Glu-Tyr substrate (25 μg/well poly-Glu-Tyr, 0.05 μg/well biotinylated poly-Glu-Tyr dissolved in 250 mM TRIS/HCl pH 7.5, 9 mM DTT) are added. The reaction is started by the addition of 20 μL of ATP Mix (30 mM TRIS/HCl pH 7.5, 0.02% Brij, 0.2 mM sodium orthovanadate, 10 mM magnesium acetate, 0.1 mM EGTA, 1× phosphatase inhibitor cocktail 1 (Sigma, No.: P2850), 50 μM ATP (Sigma, No.: A3377; 15 mM stock solution))—the final concentration of DMSO is 0.5%. After 1 h kinase reaction (the plates are shaken at 500 rpm), the reaction is stopped by the addition of 12 μL/well of 100 mM EDTA, pH 8, and shaken for a further 5 min at RT (500 U/min). 55 μL of the reaction mixture are transferred into a streptavidin plate (Strepta Well High Bind (transparent, 96-well) made by Roche, No.: 11989685001) and incubated for 1 h at RT (shaking at 500 rpm). Then the microtitre plate is washed five times with 200 μL/well D-PBS (Invitrogen, No. 14190). 100 μL of a solution containing DELFIA Eu-N1 Anti-Phosphotyrosine PT66 antibody (Perkin Elmer, No.: AD0040, diluted 1:9000 in DELFIA test buffer (Perkin Elmer, No.: 1244-111)) is then added and it is incubated for 1 h at RT (shaking at 500 rpm). Then the plate is washed five times with 200 μL/well DELFIA washing buffer (Perkin Elmer, No.: 1244-114), 200 μL/well strengthening solution (Perkin Elmer, No.: 1244-105) is added and the whole is incubated for 10 min at RT (shaking at 300 rpm).
The time-delayed europium fluorescence is then measured in a microtitre plate reader (Victor, Perkin Elmer). The positive control consists of wells that contain solvent (0.5% DMSO in test buffer) and display uninhibited kinase activity. Wells that contain test buffer instead of enzyme act as a control for the background kinase activity.
The IC50 values are determined from concentration-activity analyses by iterative calculation using a sigmoid curve analysis algorithm (FIFTY, based on Graph PAD Prism Version 3.03) with a variable Hill coefficient.

[1] = target: T2, Xenopus laevis Aurora B/INCENP complex (Xenopus laevis, UniProt Q6DE08); test: Aurora-B kinase assay (radioactive enzyme inhibition); assay type: biochemical
T2 construct: equipped at the N-terminal position with a GST tag (amino acids 60-361); GST (N, cleaved yes); made in house; host or cells: E. coli BL21 (DE3)
From the text: A radioactive enzyme inhibition assay was developed using E. coli-expressed recombinant Xenopus laevis Aurora B wild-type protein equipped at the N-terminal position with a GST tag (amino acids 60-361) in a complex with Xenopus laevis INCENP (amino acids 790-847), which is obtained from bacteria and purified. In equivalent manner a Xenopus laevis Aurora B mutant (G96V) in a complex with Xenopus laevis INCENP^790-847 may also be used.
The coding sequence for Aurora-B^60-361 from Xenopus laevis is cloned into a modified version of pGEX-6T (Amersham Biotech) via BamHI and SalI cutting sites. The vector contains two cloning cassettes which are separated by a ribosomal binding site, allowing bi-cistronic expression. In this configuration Xenopus laevis Aurora B is expressed by the first cassette, and the Xenopus laevis INCENP^790-847 is expressed by the second cassette. The resulting vector is pAUB-IN^847.
First of all the E. coli strain BL21 (DE3) is co-transformed with pUBS520 helper plasmid and pAUB-IN^847, after which protein expression is induced using 0.3 mM IPTG at an OD600 of 0.45-0.7. The expression is then continued for approx. 12-16 h at 23-25° C. with agitation.
The bacteria are then removed by centrifuging and the pellet is lysed in lysis buffer (50 mM Tris/Cl pH 7.6, 300 mM NaCl, 1 mM DTT, 1 mM EDTA, 5% glycerol, Roche Complete Protease Inhibitor tablets) using ultrasound, using 20-30 mL lysis buffer per litre of E. coli culture. The lysed material is freed from debris by centrifugation (12000 rpm, 45-60 min, JA20 rotor). The supernatant is incubated with […] of equilibrated GST Sepharose Fast Flow (Amersham Biosciences) per litre of E. coli culture for 4-5 h at 4° C. Then the column material is washed with 30 volumes of lysis buffer and then equilibrated with 30 volumes of cleavage buffer (50 mM Tris/Cl pH 7.6, 150 mM NaCl, 1 mM DTT, 1 mM EDTA). To cleave the GST tag from Aurora B, 10 units of Prescission Protease (Amersham Biosciences) are used per milligram of substrate and the mixture is incubated for 16 h at 4° C. The supernatant which contains the cleavage product is loaded onto a 6 mL Resource Q column (Amersham Biosciences) equilibrated with ion exchange buffer (50 mM Tris/Cl pH 7.6, 150 mM NaCl, 1 mM DTT, 1 mM EDTA). The Aurora B/INCENP complex is caught as it flows through, then concentrated and loaded onto a Superdex 200 size exclusion chromatography (SEC) column equilibrated with SEC buffer (10 mM Tris/Cl pH 7.6, 150 mM NaCl, 1 mM DTT, 1 mM EDTA). Fractions which contain the AuroraB/INCENP complex are collected and concentrated using Vivaspin concentrators (molecular weight exclusion 3000-5000 Da) to a final concentration of 12 mg/mL. Aliquots (e.g. 240 ng/μL) for kinase assays are transferred from this stock solution into freezing buffer (50 mM Tris/Cl pH 8.0, 150 mM NaCl, 0.1 mM EDTA, 0.03% Brij-35, 10% glycerol, 1 mM DTT) and stored at −80° C.
Test substances are placed in a polypropylene dish (96 wells, Greiner #655 201), in order to cover a concentration frame of 10 μM-0.0001 μM. The final concentration of DMSO in the assay is 5%. 30 μL of protein mix (50 mM Tris/Cl pH 7.5, 25 mM MgCl2, 25 mM NaCl, 167 μM ATP, 10 ng Xenopus laevis Aurora B/INCENP complex in freezing buffer) are pipetted into the 10 μl of test substance provided in 25% DMSO and this is incubated for 15 min at RT. Then 10 μL of peptide mix (100 mM Tris/Cl pH 7.5, 50 mM MgCl2, 50 mM NaCl, 5 μM NaF, 5 μM DTT, 1 μCi gamma-P33-ATP [Amersham], 50 μM substrate peptide [biotin-EPLERRLSLVPDS or multimers thereof, or biotin-EPLERRLSLVPKM or multimers thereof, or biotin-[…]]) are added. The reaction is incubated for 75 min (ambient temperature) and stopped by the addition of 180 μL of 6.4% trichloroacetic acid and incubated for 20 min on ice. […]

T1 sequence (Q05397 whole entry): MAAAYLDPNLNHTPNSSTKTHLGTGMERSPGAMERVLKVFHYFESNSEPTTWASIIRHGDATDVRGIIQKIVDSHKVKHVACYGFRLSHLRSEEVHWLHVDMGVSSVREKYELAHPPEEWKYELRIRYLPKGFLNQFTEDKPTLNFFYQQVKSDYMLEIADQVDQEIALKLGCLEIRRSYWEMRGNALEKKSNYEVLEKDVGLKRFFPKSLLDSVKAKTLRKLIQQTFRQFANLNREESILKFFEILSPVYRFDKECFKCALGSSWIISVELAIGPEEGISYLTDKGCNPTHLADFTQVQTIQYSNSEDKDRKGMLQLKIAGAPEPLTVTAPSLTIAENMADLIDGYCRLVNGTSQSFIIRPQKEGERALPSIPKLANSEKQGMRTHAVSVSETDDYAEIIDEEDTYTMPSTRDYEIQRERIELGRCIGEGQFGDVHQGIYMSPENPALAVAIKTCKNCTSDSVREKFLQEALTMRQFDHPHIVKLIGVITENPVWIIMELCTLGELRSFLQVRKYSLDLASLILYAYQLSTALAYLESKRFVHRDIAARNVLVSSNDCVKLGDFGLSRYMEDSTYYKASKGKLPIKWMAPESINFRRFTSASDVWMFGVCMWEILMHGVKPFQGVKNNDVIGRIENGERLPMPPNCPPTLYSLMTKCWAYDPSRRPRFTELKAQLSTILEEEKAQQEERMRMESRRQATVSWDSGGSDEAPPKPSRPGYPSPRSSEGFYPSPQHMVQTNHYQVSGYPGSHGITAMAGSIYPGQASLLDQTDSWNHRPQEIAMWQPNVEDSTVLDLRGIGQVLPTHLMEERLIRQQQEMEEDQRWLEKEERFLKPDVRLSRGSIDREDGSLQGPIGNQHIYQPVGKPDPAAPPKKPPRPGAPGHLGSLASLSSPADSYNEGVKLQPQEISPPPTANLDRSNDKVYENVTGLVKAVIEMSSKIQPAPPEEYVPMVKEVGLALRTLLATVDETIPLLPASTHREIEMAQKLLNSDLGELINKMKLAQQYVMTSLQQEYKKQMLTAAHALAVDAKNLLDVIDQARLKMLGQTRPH
T2 sequence (Q6DE08 60-361): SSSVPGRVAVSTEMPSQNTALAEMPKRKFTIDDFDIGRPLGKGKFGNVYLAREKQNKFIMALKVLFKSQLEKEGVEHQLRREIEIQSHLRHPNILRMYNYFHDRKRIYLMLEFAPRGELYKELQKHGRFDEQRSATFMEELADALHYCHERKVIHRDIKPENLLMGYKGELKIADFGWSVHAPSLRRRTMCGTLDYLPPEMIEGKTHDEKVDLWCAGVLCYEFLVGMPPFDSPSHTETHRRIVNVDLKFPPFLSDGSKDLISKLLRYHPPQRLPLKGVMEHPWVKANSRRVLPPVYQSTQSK
T2 sequence (O13024 790-847 partner): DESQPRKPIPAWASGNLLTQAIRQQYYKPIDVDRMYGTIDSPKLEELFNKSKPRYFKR

COc1cc(N2CCN(C(C)(C)C)CC2)c(C)cc1Nc1ncc(C(F)(F)F)c(N[C@@H]2CCCC[C@H]2N(C)S(C)(=O)=O)n1 [Example I-158]
IC50 (PTK2 enzyme): 1 nM
IC50 [1]: > 10000 nM

COCCN1CCC(NC(=O)c2cc(OC)c(Nc3ncc(Cl)c(N[C@@H]4CCC[C@H]4N(C)S(C)(=O)=O)n3)cc2Cl)CC1 [Example I-166]
IC50 (PTK2 enzyme): 0.49 nM
IC50 [1]: 1140 nM

COc1cc(C(=O)NC2CCOCC2)c(C)cc1Nc1ncc(C(F)(F)F)c(N[C@@H]2CCC[C@H]2NS(C)(=O)=O)n1 [Example I-195]
IC50 (PTK2 enzyme): 0.32 nM
IC50 [1]: 641 nM
